The subject of assay [1] is field potentials in hippocampus CA1 (CRF-R1 mediated). The experiment in a line: Extracellular field potentials in hippocampal slices (CA1). It is filed as cell-based, mice. The text has this:
A bipolar stimulating electrode was placed 100-300 μm rostral to the recording electrode and was used to stimulate excitatory afferents at 0.1 Hz.

Assay [2] deals with NMDAR-mediated EPSCs in VTA dopamine neurons. As to the kind of experiment: NMDAR-mediated EPSCs, whole-cell voltage-clamp in VTA slices. As to conditions: for potentiation of NMDAR-mediated EPSCs: +40 mV. It is filed as cell-based, mice. As for the experimental part: VTA slices from 21-29 day old C57 mice (Charles River) were prepared as previously described (Ungless et al. (2001). Nature 411: 584-587). Briefly, mice were anesthetized with halothane and then decapitated. A block of tissue containing midbrain was sliced in the horizontal plane (230 μm) in ice-cold low Ca^2+ solution (containing in mM: 126 NaCl, 1.6 KCl, 1.2 NaH2PO4, 1.2 MgCl2, 0.625 CaCl2, 18 NaHCO3 and 11 glucose). Slices were transferred to a holding chamber containing artificial cerebrospinal fluid (ACSF, in mM: 126 NaCl, 1.6 KCl, 1.2 NaH2PO4, 1.2 MgCl2, 2.5 CaCl2, 18 NaHCO3 and 11 glucose) and equilibrated at 31-34° C. for at least 1 h. Picrotoxin (100 μM) was added to the ACSF for recording, to block GABAA receptor-mediated inhibitory postsynaptic potentials. All solutions were aerated with 95% O2/5% CO2, and perfused over the slice at a rate of 2.5 ml/min. Cells were visualized with an upright microscope using infrared differential interference contrast (IR-DIC) illumination and whole-cell voltage-clamp recordings were made with an Axopatch 1D amplifier (Axon Instruments). Electrodes (2-4 MΩ) contained in mM: 117 cesium methansulfonic acid, 20 HEPES, 0.4 EGTA, 2.8 NaCl, 5 TEA-Cl, 2.5 MgATP, 0.25 MgGTP, pH 7.2-7.4, 275-285 mOsm. Dopamine cells were identified by the presence of an Ih current. A bipolar stimulating electrode was placed 100-300 μm rostral to the recording electrode and was used to stimulate excitatory afferents at 0.1 Hz. Neurons were voltage-clamped at +40 mV. Coronal hippocampal slices were also prepared and maintained in a similar manner. Extracellular field potentials were recorded in the CA1 region and evoked by stimulating the stratum radiatum. All drugs were obtained from Sigma, except human/rat CRF (Tocris), Antisauvagine-30 (PolyPeptide) and CP-154,526 (a generous gift from Pfizer). CRF fragment (6-33), ovine CRF, Antisauvagine-30, CP-154,526, U-73122 and Urocortin were first dissolved in DMSO (final concentration 0.1%). EPSCs were filtered at 2 kHz, digitized at 5-10 kHz and stored using Igor Pro software (Wavemetrics). AMPAR-mediated EPSCs were recorded at −70 mV; NMDAR-mediated EPSCs were recorded at +40 mV and measured 20 msec after the stimulation artifact when the EPSC is primarily NMDAR-mediated (11,13). Statistical significance was assessed using ANOVA on 5 min bins of EPSCs, and post hoc Fisher's LSD where appropriate.
We measured excitatory postsynaptic currents (EPSCs) recorded in putative dopamine neurons in midbrain slices from mice. EPSCs were evoked while holding neurons in voltage-clamp at +40 mV; measurements were taken at a time point when the EPSC is purely NMDA-receptor-mediated (see Methods) (Bonci and Malenka (1999). J Neurosci. 19: 3723-3730; Ungless et al. (2001). Nature 411: 584-587). […] To facilitate our subsequent investigation of the effects of CRF, we therefore sought to identify a characteristic that might help us determine, a priori, to which group a particular neuron belongs. […] We noticed that, typically, neurons that responded to CRF had large Ih currents (FIG. 1B). […] Henceforth, all subsequent experiments were conducted on cells with an Ih greater than 100 pA.

For assay [3], the system named is NMDARs. As to conditions: derived from cell lines; Patneau and Mayer 1990; cited from earlier work.
For assay [4], the target named is T1, CRF-BP (Homo sapiens, UniProt P24387).
T1 sequence (P24387 25-322): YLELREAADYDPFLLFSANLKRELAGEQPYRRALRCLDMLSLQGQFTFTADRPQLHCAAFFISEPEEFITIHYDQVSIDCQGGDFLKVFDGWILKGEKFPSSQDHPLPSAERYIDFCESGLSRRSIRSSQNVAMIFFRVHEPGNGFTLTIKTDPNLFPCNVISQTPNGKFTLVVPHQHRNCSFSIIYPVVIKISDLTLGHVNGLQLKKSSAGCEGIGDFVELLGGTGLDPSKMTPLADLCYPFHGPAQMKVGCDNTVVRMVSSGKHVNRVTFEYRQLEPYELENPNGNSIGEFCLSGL
The note with it: in words; cited from earlier work.

For assay [5], the system named is cAMP in Ltk- cells. As to conditions: CRF 1 μM; Lovenberg et al. 1995; cited from earlier work.
For assay [6], the system named is AMPAR-mediated EPSCs in VTA dopamine neurons. The experiment in a line: AMPAR-mediated EPSCs, whole-cell voltage-clamp in VTA slices. It is filed as cell-based, mice. As to conditions: CRF 1 μM; voltage-clamp at -70 mV; n=4. As for the experimental part: VTA slices from 21-29 day old C57 mice (Charles River) were prepared as previously described (Ungless et al. (2001). Nature 411: 584-587). Briefly, mice were anesthetized with halothane and then decapitated. A block of tissue containing midbrain was sliced in the horizontal plane (230 μm) in ice-cold low Ca^2+ solution (containing in mM: 126 NaCl, 1.6 KCl, 1.2 NaH2PO4, 1.2 MgCl2, 0.625 CaCl2, 18 NaHCO3 and 11 glucose). Slices were transferred to a holding chamber containing artificial cerebrospinal fluid (ACSF, in mM: 126 NaCl, 1.6 KCl, 1.2 NaH2PO4, 1.2 MgCl2, 2.5 CaCl2, 18 NaHCO3 and 11 glucose) and equilibrated at 31-34° C. for at least 1 h. Picrotoxin (100 μM) was added to the ACSF for recording, to block GABAA receptor-mediated inhibitory postsynaptic potentials. All solutions were aerated with 95% O2/5% CO2, and perfused over the slice at a rate of 2.5 ml/min. […] Extracellular field potentials were recorded in the CA1 region and evoked by stimulating the stratum radiatum. […] AMPAR-mediated EPSCs were recorded at −70 mV; NMDAR-mediated EPSCs were recorded at +40 mV and measured 20 msec after the stimulation artifact when the EPSC is primarily NMDAR-mediated (11,13). Statistical significance was assessed using ANOVA on 5 min bins of EPSCs, and post hoc Fisher's LSD where appropriate. […]

The target in assay [7] is T2, CRF-R1 (Homo sapiens, UniProt P34998).
T2 sequence (P34998 24-415): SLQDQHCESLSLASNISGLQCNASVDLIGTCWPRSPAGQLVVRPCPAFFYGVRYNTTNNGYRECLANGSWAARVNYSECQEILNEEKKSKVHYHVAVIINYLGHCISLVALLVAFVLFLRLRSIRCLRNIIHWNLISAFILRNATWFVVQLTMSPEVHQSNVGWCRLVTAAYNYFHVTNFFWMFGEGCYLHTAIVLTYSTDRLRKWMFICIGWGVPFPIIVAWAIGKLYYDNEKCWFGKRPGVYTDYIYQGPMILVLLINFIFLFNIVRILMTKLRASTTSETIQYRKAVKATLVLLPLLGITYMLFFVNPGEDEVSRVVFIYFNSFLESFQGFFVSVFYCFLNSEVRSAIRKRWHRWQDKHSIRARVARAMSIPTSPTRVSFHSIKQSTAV
The note with it: in words; cited from earlier work.

[8] abbreviates: peptide 1 μM for 8 min, small Ih (non-responding) dopamine neurons.
[9] abbreviates: peptide bath applied 1 μM for 8 min, large Ih (CRF-responding) dopamine neurons.

“Also recorded” adds a separate entry of the source. Where no end group is shown, it is not given here.

As to `CCCCN(CC)c1nc(C)nc2c1c(C)cn2-c1c(C)cc(C)cc1C` [CP-154,526], the “hippocampal field potential vs. baseline with CRF plus antagonist” value in assay [1] (CRF 1 μM plus 3 μM CP-154,526, n=5, P>0.05) came out at 82.9±6.9%. For the same molecule, the “block of CRF-induced potentiation of NMDAR-mediated EPSCs” value (“block” for short) in assay [2] (CP-154,526 3 μM for 15 min, CRF 1 μM, n=6) is reported as “failed to block; also recorded: does not block”.
With `Nc1ncnc2c1ncn2[C@@H]1O[C@@H]2CO[P@@](O)(=S)O[C@H]2[C@H]1O` [Rp-cAMPs], in assay [2] (Rp-cAMPs 100 μM in patch pipette, CRF 1 μM, n=4), the “block” value is listed as “still observed a significant potentiation; also recorded: is not blocked”.
As for `COc1ccc2c(c1)CC[C@@H]1[C@@H]2CC[C@]2(C)[C@@H](NCCCCCCN3C(=O)C=CC3=O)CC[C@@H]12` [U-73122], the “block” value in assay [2] (U-73122 1 μM for 10 min before and during CRF application, n=5) is given as “no potentiation”; in assay [2] (U-73122 1 μM for 10 min before and during CRF application, n=5, listed as U73122), “is blocked”.
Consider `N[C@@H](CCC(=O)O)C(=O)O` [glutamate], for which the EC50 in assay [3] was approximately 1000 nM.
For Antisauvagine-30, the “NMDAR-mediated EPSC size vs. baseline with CRF in presence of antagonist” value in assay [2] (Antisauvagine-30 30 nM, CRF 1 μM, 15 mins after CRF onset, n=3, P>0.05) came out at 113.9±17.7%. Besides, in assay [2] (Antisauvagine-30 1M for 15 min (so in the source), CRF 1 μM, n=5), the “block” value is reported as “inhibited; also recorded: blocks”.
Regarding “CRF fragment (6-33): CRF fragment that competes with CRF at the CRF-BP; CRF-BP inhibitor (ISLDLTFHLLREVLEMARAEQLAQQAHS; Corticoliberin; UniProt P06850 159-186, looked up, fragment)”, the “block” value in assay [2] (CRF fragment (6-33) 1 μM for 10 min co-applied with CRF, n=5) is given as “did not potentiate; also recorded: inhibits”. The “affinity for CRF-BP” value in assay [4] is reported as “high-affinity binding”.
Turning to “CRF: Corticotrophin-releasing factor, a 41 amino acid peptide; human/rat CRF (Tocris) (SEEPPISLDLTFHLLREVLEMARAEQLAQQAHSNRKLMEII)”, the “hippocampal field potential vs. baseline” value in assay [1] (CRF 1 μM, 15 mins after CRF onset, n=4, P<0.05) was found to be 143.0±7.7%. For the same molecule, the “NMDAR-mediated EPSC size vs. baseline” value in assay [2] (CRF 100 nM, 25 mins after CRF onset, n=6, P<0.05) stood at 128.01±15.7%. For the same molecule, the “potentiation of NMDAR-mediated EPSCs” value in assay [2] (setting [8]) is “did not observe any effect; also recorded: do not exhibit CRF-induced potentiation”; in assay [2] (setting [9]), “large, slowly developing, and transient potentiation; also recorded: exhibit CRF-induced potentiation”. Besides, in assay [5], the “activation of cAMP” value is listed as “maximal activation”. Also, in assay [6], the “potentiation of AMPAR-mediated EPSCs” value is listed as “did not potentiate; also recorded: does not potentiate”.
In the case of “Urocortin II: CRF-like peptide binding selectively to CRF-R2 (IVLSLDVPIGLLQILLEQARARAAREQATTNARILARVGHC; ends and bridges not checked; UniProt Q96RP3 72-112, looked up)”, the “potentiation of NMDAR-mediated EPSCs” value in assay [2] (setting [9]) is “no potentiation; also recorded: does not potentiate”. Besides, the “affinity for CRF-BP” value in assay [4] is “low affinity”. Further, the “affinity for CRF-R1” value in assay [7] is recorded as “low affinity”.
Take “Urocortin: CRF-like peptide, possible endogenous CRF-R2 ligand, also binds CRF-BP (DNPSLSIDLTFHLLRTLLELARTQSQRERAEQNRIIFDSV; ends and bridges not checked; UniProt P55089 83-122, looked up)”: the “potentiation of NMDAR-mediated EPSCs” value in assay [2] (setting [8]) is listed as “not”; in assay [2] (setting [9]), “potentiation; also recorded: potentiates”. The “affinity for CRF-BP” value in assay [4] is listed as “higher affinity than CRF”. The “affinity for CRF-R1” value in assay [7] is listed as “slightly lower affinity than CRF-R2”.
On to “ovine CRF: differs from human/rat CRF by 7 amino acids; binds CRF-R2, much lower affinity for CRF-BP”, for which the “potentiation of NMDAR-mediated EPSCs” value in assay [2] (setting [9]) was “no potentiation”; in assay [2] (peptide bath applied 1 μM for 8 min, large Ih (CRF-responding) dopamine neurons, listed as bovine CRF), “does not induce potentiation”. In addition, the “affinity for CRF-BP” value in assay [4] was “much lower affinity”.

What is called EC50 is the concentration that produces a half-maximal response.

Source of the values: patent publication US20060024661A1, “Modulation of CRF potentiation of NMDA receptor currents via CRF receptor 2” (The Regents of the University of California, priority 2003, published 2006).
